Measurements from a melting point compilation (Tetko et al.; mined from patent text by program, amines drawn as free bases though some values may be those of a salt).

First: COc1ccc2nc3cc(C(=O)O)ccn3c(=O)c2c1
Second: NC(=O)c1sc2ccc(OCc3ccccc3)cc2c1Cl
The melting point of the first is higher: 323 to 327 °C for the first, 206 °C for the second.

Compared with `CC(c1ccc(-c2ccccc2)c(F)c1)c1nc(N)no1` (centres undefined), `CSCC1(c2onc(-c3ccc(O)cc3)c2-c2ccccc2)CC1` is higher in melting point: 174 to 175 °C for the first, 176 to 177 °C for the second.

First: Cc1ccc(S(=O)(=O)NCC(=O)c2ccccc2)cc1
Second: COc1cc(OCc2ccccc2)ccc1S(=O)(=O)Cl
The melting point of the first is higher: 148 to 149 °C for the first, 95 °C for the second.

First: COC(=O)c1ccc(NC(C)=O)c([N+](=O)[O-])c1
Second: CC(=O)NNC(=O)c1ccccc1
The melting point of the first is lower: 123 to 124 °C for the first, 172 to 174 °C for the second.

First: N#Cc1cc(Br)c(OC(=O)OCOC(=O)COc2ccc(Cl)cc2Cl)c(Br)c1
Second: CCCOCCOc1ccc(Oc2ccc3c(c2)C=C(C(=O)O)CCS3(=O)=O)cc1OCC
The melting point of the first is lower: 88 to 89 °C for the first, 116 to 118 °C for the second.

First: CCc1cc2c(s1)-n1c(C3CCCCC3)nnc1C(NC(=O)Nc1ccc(OC)cc1)N=C2c1ccccc1Cl (centres undefined)
Second: COC(=S)Nc1ccc(OCc2nc3ccccc3s2)cc1
The melting point of the first is higher: 268 to 269 °C for the first, 160 to 162 °C for the second.

First: CC1(C)CCCN(C(=O)[C@H]2C[C@@H](S(=O)(=O)c3ccccc3)[C@@H](c3ccccc3F)N2C(=O)CNC(=O)Nc2cccc(C(=O)O)c2)C1 (racemic)
Second: CN1C(=O)C(NC(=O)C(CC2CC2)C2(C(N)=O)CC=CC2)N=C(c2ccccc2)c2ccccc21 (centres undefined)
The melting point of the first is higher: 258 °C for the first, 238 to 240 °C for the second.

First: CCOC(=O)Cn1cc(Cc2nc3c(F)c(F)cc(F)c3s2)c2ccccc21
Second: CCOC(=O)c1[nH]c2c(NS(=O)(=O)c3cccs3)cccc2c1C
The melting point of the first is lower: 110 to 111 °C for the first, 198 to 199 °C for the second.

Compared with `CCc1cncnc1Nc1ccc(C(=O)CCC2CCN(Cc3ccccc3)CC2)cc1`, `COc1ccc(CC2CCN(C(=O)C(=O)Nc3ccc(NS(C)(=O)=O)cc3)CC2)cc1` is higher in melting point: 136 to 138 °C for the first, 206 to 208 °C for the second.

First: NCc1nc2ccccc2[nH]1
Second: c1ccc2c(c1)c1[nH]cnc1c1nnnn21
The melting point of the first is lower: 81 to 83 °C for the first, greater than 300 °C for the second.

First: CCCCCCCNC(=O)Nc1ccccc1N(C)C(=O)c1cc(C(C)(C)C)c(O)c(C(C)(C)C)c1
Second: CCCCN(C)C(=O)CS(=O)CCCCCOc1ccc(C2=C(c3ccccc3)CCCc3ccccc32)cc1 (centres undefined)
The melting point of the first is higher: 193 to 196 °C for the first, 120 to 121 °C for the second.

First: O=C(O)c1nc2n(n1)-c1cccnc1N(C1CCCCC1)C2
Second: CC(C)(O)C#Cc1ncn2c1[C@@H]1CCCN1C(=O)c1c(Cl)cccc1-2
The melting point of the first is lower: 170 to 176 °C for the first, 234 to 235 °C for the second.

Compared with `Cc1nc2cc(C(c3cccc(Cl)c3)n3ccnc3)ccc2[nH]1` (centres undefined), `CCCCCCCOc1ccc(-c2ncc(C#N)c(Cl)n2)cc1` is higher in melting point: 117 °C for the first, 133 to 135 °C for the second.

First: Cc1c(C)c(N)c2c(c1C)C(=O)C(C)(C)O2
Second: CCOC(=O)C1=C(N(C)C)N=C(C)C(C(=O)OCC)C1c1ccccc1C(F)(F)F (centres undefined)
The melting point of the first is higher: 141 to 142 °C for the first, 87 °C for the second.

First: Cc1nn(-c2cccnc2)cc1NCC1CC1
Second: CC1CCCN1C1CCN(c2ccc(CC(=O)NC3CCOCC3)cc2)C1 (centres undefined)
The melting point of the first is lower: 73 to 75 °C for the first, 155 to 157 °C for the second.

Compared with `CC(C)c1ncc(O)c(O)n1`, `CC1(C)CCC(C)(C)c2cc(C(O)C#Cc3ccc(C(=O)O)c(O)c3)ccc21` (centres undefined) is higher in melting point: 187 °C for the first, 203 to 204 °C for the second.

First: CC(=N)NC(=O)Nc1ccccc1
Second: CCOC(=O)C(CC(=O)c1ccccc1Cl)(NC(C)=O)C(=O)OCC
The melting point of the first is higher: 204 to 206 °C for the first, 157 to 158 °C for the second.

First: COc1ccc(-c2c(Cl)c(CN3C(=O)CCC3=O)nc3sc4c(c23)CC(C)(C)C(OCc2ccccc2)C4)cc1 (centres undefined)
Second: CC(=O)N1CCC(=O)C(C2c3ccccc3CCc3ccccc32)C1 (centres undefined)
The melting point of the first is higher: 221 to 223 °C for the first, 107 to 109 °C for the second.

First: Cc1c(Cl)ccc(S(=O)(=O)Cl)c1C#N
Second: O=C(O)C1=Cc2cc(Oc3ccc(Cl)cc3)ccc2OC1C(F)(F)F (centres undefined)
The melting point of the first is lower: 69 to 72 °C for the first, 140 to 142 °C for the second.

`O=C1c2ccc(N=C(c3ccccc3)N3CCCCC3)cc2C(=O)c2ccc(N=C(c3ccccc3)N3CCCCC3)cc21` gave a melting point of 264 to 266 °C.
